Paper PMC10689700, “Kaemtakols A–D, highly oxidized pimarane diterpenoids with potent anti-inflammatory activity from Kaempferia takensis” (Natural Products and Bioprospecting, 2023)

Key:
[1] = tested on: NO production in RAW 264.7 macrophage cells; test: Inhibition of LPS-induced NO production in RAW 264.7 macrophage cells (Griess reaction); assay type: cell-based, murine; details: Mus musculus; for IC50: RAW264.7, LPS-triggered RAW 264.7 macrophage cells, read-out: IC50 of inhibiting nitric oxide production; for EC50: RAW264.7 cells, LPS 0.25 μg/mL, 24 h, read-out: EC50, Nitric oxide (LPS-induced NO production)
Experimental: (§1) Inhibition of NO production in LPS-activated murine macrophages (RAW 264.7 cells) The inhibitory assay followed the methods described previously with some modifications. RAW 264.7 cells were seeded at 3 × 10^4 cells/well in a 96-well flat bottom plate and cultured in DMEM high glucose supplemented with 10% FBS, 1% penicillin–streptomycin, and 1% HEPES. The plates were initially incubated at 37 °C for 24 h under 5% CO2 atmosphere. Thereafter, LPS (0.25 μg/mL) in the absence or presence of different concentrations of kaemtakols (100, 10, 1, 0.1, 0.01, and 0.001 μg/mL) were introduced into the culture plate and then incubated further for 24 h under the same condition. Aminoguanidine hydrochloride (iNOS inhibitor) was also added as a positive control. The nitrite accumulation in the media was determined by the Griess reaction. The 75 μL of each culture supernatant was mixed with an equivalent amount of Griess reagent and the resulting mixture was incubated at room temperature for additional 10 min. Then, the absorbance at 546 nm was measured using a multimode microplate reader (ENVISION). The cytotoxicity of kaemtakols against RAW 264.7 was determined by a standard MTT assay.

NF-κB in HaCaT cells = test: Inhibition of cytokine-induced NF-κB nuclear translocation in HaCaT human skin cells (high-content imaging); assay type: cell-based; details: cytokine cocktail TNF-α, IL-1β, IL-6, read-out: EC50, HaCaT cell (NF-κB production by cytokine induced inflammation)
Experimental: Assessment of inhibitory effects on NF-κB nuclear translocation in human skin HaCaT cells
The assay followed the methods described previously with some modifications. Human skin cells (HaCaT cells) were seeded at 5 × 10^4 cells/well in a 96-well black flat-bottom plate, using DMEM (Dulbecco’s Modified Eagle Medium) high glucose supplemented with 10% FBS and 1% penicillin–streptomycin. The plates were then incubated at 37 °C for 24 h under 5% CO2 atmosphere. Following the initial incubation, a range of concentrations (100, 50, 25, 12.5, 6.25, 3.125 μM) of kaemtakols were introduced to the cells, and a subsequent 1-h incubation at 37 °C with 5% CO2 was carried out. Afterward, a cytokine cocktail comprising TNF-α (10 ng/mL), IL-1β (10 ng/mL), and IL-6 (10 ng/mL), along with the same concentration range of kaemtakols, was introduced to the culture plates and incubated at 37 °C with 5% CO2 for additional 30 min. Thereafter, the treated cells were fixed with 100% methanol at -20 °C for 10 min. The fixed cells underwent triple washes with DPBS before being exposed to a blocking solution (3% BSA) at room temperature for 60 min. Subsequently, a primary antibody (anti-NF-κB), a Rabbit monoclonal antibody, was introduced into the culture plate at a 1:500 ratio in DPBS and incubated at 4 °C overnight. Afterward, the culture plate was washed with DPBS three times. A secondary antibody (Alexa Fluor 488-conjugated goat anti-rabbit IgG) at a 1:500 ratio in DPBS was added to the culture plate and incubated for 1 h at room temperature in the dark. Simultaneously, Hoechst (at a 1:1,000 ratio in DPBS) was also added to the culture plate. The translocation of NF-κB in cells treated with the cytokine cocktail and kaemtakols was subsequently detected using a high-content imaging system (Operetta). The cell viability was determined by Hoechst DNA staining (Operetta).

[2] = Cytotoxicity against RAW 264.7 cells (MTT assay); assay type: cell-based, murine; details: mouse; for viability at 24 h, 10 µM: at 10 μM, read-out: % Cell viability At 10 μM; for viability at 24 h, 100 µM: at 100 μM, read-out: % Cell viability At 100 μM
Experimental: as §1, with “The” for “Inhibition of NO production in LPS-activated murine macrophages (RAW 264.7 cells) The”

Compound | IC50 [1] [µM] | EC50 [1] [µM] | EC50 (NF-κB in HaCaT cells) [µM] | viability at 24 h, 10 µM [2] [%] | viability at 24 h, 100 µM [2] [%]
C=CC1(C)C=C2C3(O)OCC4(C(OC(C)=O)CCC(C)(C)C4C3OC(C)=O)C2(O)CC1 (stereo not drawn) [Compound 1, 7α,9α-dihydroxy-1α,6β-diacetoxy-7β,20-epoxyisopimara-8(14),15-diene] | 104 | 104 | > 100 | 95.7 | 68.5
C=C[C@]1(C)C=C2[C@](O)(CC1)[C@]13CO[C@@]2(O)[C@@H](OC(C)=O)[C@H]1C(C)(C)CC[C@@H]3O [Compound 2, 1α,7α,9α-trihydroxy-6β-acetoxy-7β,20-epoxyisopimara-8(14),15-diene] | 0.69 | 0.69 | > 100 | 83 | 20.8
C=C[C@]1(C)C=C2[C@@H](OC(C)=O)[C@@]3(O)OC[C@]4([C@@H]3C(C)(C)CC[C@@H]4O)[C@@]2(O)CC1 [Compound 3, 1α,6α,9α-trihydroxy-7β-acetoxy-6β,20-epoxyisopimara-8(14),15-diene] |  | 29.9 | > 100 | 92.5 | 97.2
CC(=O)OC1CCC(C)(C)C(C=O)C12COC(=O)C1=C2C2CC3C1C3(C)C2 (stereo not drawn) [Compound 4, 1α-acetoxy-13β-methyl-6,7-seco-7,20-olide-8,9-tricyclo[3.2.1.0^2,7]octane-isopimara-8-en-6-al] |  | 18.8 | > 100 | 89.7 | 1.55
